Here are results for 55 molecules from patent US9428456B2, “1-[m-carboxamido(hetero)aryl-methyl]-heterocyclyl-carboxamide derivatives” (Actelion Pharmaceuticals Ltd., priority 2012, dated 2016).

The target in the assay is CXCR7 (Homo sapiens (Human), UniProt P25106). As to the kind of experiment: PathHunter CHO-K1 CXCR7 b-arrestin assay (agonistic activity). Format: cell-based. The following applies: PathHunter CHO-K1 CXCR7 b-arrestin cell line. As to the method: The CXCl12 receptor and CXCR7 agonistic activities of the compounds of formula (I) are determined in accordance with the following experimental method.
CXCR7, sequence (P25106 whole entry, the tested form may be a part): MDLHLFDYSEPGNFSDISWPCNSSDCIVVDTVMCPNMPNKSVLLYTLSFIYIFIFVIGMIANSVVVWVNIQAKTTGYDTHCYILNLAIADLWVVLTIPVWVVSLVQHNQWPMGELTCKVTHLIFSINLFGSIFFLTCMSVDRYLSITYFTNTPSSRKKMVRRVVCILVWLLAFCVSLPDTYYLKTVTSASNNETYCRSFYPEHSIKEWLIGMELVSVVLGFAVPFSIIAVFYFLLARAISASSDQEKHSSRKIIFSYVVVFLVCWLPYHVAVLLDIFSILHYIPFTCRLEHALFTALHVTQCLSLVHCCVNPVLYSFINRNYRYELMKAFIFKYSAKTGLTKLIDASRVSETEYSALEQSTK
CXCR7, sequence (P32121 whole entry partner, the tested form may be a part): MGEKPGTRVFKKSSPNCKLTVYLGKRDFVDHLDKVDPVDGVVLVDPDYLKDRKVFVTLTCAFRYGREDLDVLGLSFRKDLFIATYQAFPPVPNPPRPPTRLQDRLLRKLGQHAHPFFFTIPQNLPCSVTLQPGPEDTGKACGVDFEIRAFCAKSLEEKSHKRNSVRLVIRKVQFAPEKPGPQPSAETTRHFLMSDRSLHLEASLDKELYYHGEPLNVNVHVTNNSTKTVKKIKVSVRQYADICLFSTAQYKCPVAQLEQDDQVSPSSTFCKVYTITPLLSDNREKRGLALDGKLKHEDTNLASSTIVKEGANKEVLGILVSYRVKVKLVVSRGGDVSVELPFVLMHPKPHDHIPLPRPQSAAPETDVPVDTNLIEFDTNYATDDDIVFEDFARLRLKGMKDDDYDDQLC
The assay is using the PathHunter™ CHO-K1 CXCR7 b-arrestin cell line from DiscoverX. The system is based on the Enzyme Fragment Complementation Technology. Two complementing fragments of the b-galactosidase enzyme are expressed within stably transfected cells. The larger portion of b-gal, termed EA for Enzyme Acceptor, is fused to the C-terminus of b-arrestin 2. The smaller fragment, termed ProLink™ tag, is fused to CXCR7 at the C-terminus. Upon activation, b-arrestin is recruited which forces the interaction of ProLink and EA, allowing complementation of the two fragments of b-gal and the formation of a functional enzyme which is capable of hydrolysing the substrate and generating a chemiluminescent signal.
CHO-K1 CXCR7 b-arrestin cells are detached from culture dishes with a cell dissociation buffer (Invitrogen, #13151-014) and collected in growing medium (F12 HAMS 90% (v/v)/FCS 10% (v/v), Penicilin/streptomycin 1% (v/v)). 5000 cells per well (in 20 μl) are seeded in a 384 well plate (white-walled, clear bottom; BD Falcon #353274). The plate is incubated at 37° C./5% CO2 for 24 hours. Medium is then replaced by 20 μl OPTIMEM (Invitrogen #31985) for 3 to 4 hours. Test compounds are dissolved at 10 mM in DMSO and serially diluted in DMSO to 200× of the final concentration for dose response curves. Compounds are then diluted 1:33.3 in HBSS1×. 5 μl/well of HBSS1×/20 mM HEPES/0.2% BSA are added to the assay plate followed by addition of 5 μl/well of diluted compounds. CXCL12 (Peprotech #300-28A) may be used as a reference agonist. The plate is incubated for 90 minutes at 37° C. 12 μl of detection reagent (Path Hunter Detection Kit, DiscoveRx, #93-0001) is transferred to the assay plate and to the plate is incubated for 1 hour at room temperature. Luminescent signal is read in a microplate reader (FLUOstar Optima, bmg). The calculated EC50 values may fluctuate depending on the daily cellular assay performance. Fluctuations of this kind are known to those skilled in the art. Average EC50 values from several measurements are given as geometric mean values.
By EC50 is commonly meant the concentration at which the effect is half-maximal. Read a high EC50 as a less potent agent. `CC(C)(C)NC(=O)C1CCN(Cc2cccc(NC(=O)c3cnc4ccccc4n3)c2)CC1` [Example 1.232] yielded an EC50 of 3 nM.
With `CC(c1cccc(NC(=O)c2ccncc2)c1)N1CCC(C(=O)NC2CCCCC2)CC1` (racemic) [Example 1.176], the response was half-maximal at 173 nM (EC50).
Regarding `COc1ccc(C(=O)Nc2cccc(CN3CCC(C(=O)NC4CCCCC4)CC3)c2)cn1` [Example 1.092], the 50% effective concentration (EC50) worked out at 3 nM.
As to `CC(C)(C)NC(=O)C1CCN(Cc2cccc(NC(=O)c3ccc4cnccc4n3)c2)CC1` [Example 1.234], it took 2 nM to reach a half-maximal effect (EC50).
Molecule `O=C(Nc1ccc(Cl)c(CN2CCC(C(=O)NC3CCCC3)CC2)c1)c1ccccc1` [Example 1.217] came in with an EC50 of 0.4 nM.
The figure for `CCc1ccc(NC(=O)c2cccc(C(F)(F)F)n2)cc1CN1CCC(C(=O)NC(C)(C)C)CC1` [Example 1.332] is 16 nM; for `Cc1cc(C(=O)Nc2cccc(CN3CCC(C(=O)NC(C)(C)C)CC3)c2)cnn1` [Example 7.001, 6-Methyl-pyridazine-4-carboxylic acid [3-(4-tert-butylcarbamoyl-piperidin-1-ylmethyl)-phenyl]-amide] it is 62 nM; for `Cc1cncc(C(=O)Nc2cccc(CN3CCC(C(=O)NC4CCCCC4)CC3)c2)c1` [Example 6.001, N-(3-((4-(cyclohexylcarbamoyl)piperidine-1-yl)d2methyl)phenyl)-5-methylnicotinamide] it is 5 nM.
With `O=C(Nc1cccc(CN2CCC(C(=O)NC3CCCC3)CC2)c1)c1cccnc1C(F)(F)F` [Example 1.214], a half-maximal effect (EC50) was put at 109 nM.
The figure for `CC(C)(C)NC(=O)C1CCN(Cc2cccc(NC(=O)Cc3c(C(F)(F)F)ccc(Cl)c3Cl)c2)CC1` [Example 1.251] is 3 nM; for `O=C(Nc1cccc(CN2CCC(C(=O)NC3CCCCC3)CC2)c1)c1cncc(F)c1` [Example 1.056] it is 7 nM.
`O=C(Nc1cccc(CN2CCC(C(=O)NC3CCCCC3)CC2)c1)c1cc(Cl)cc(Cl)c1` [Example 1.139] yielded an EC50 of 22 nM. This EC50 lies about 3.1-fold higher than the previous one.
Turning to `O=C(Nc1cccc(CN2CCC(C(=O)NC3CCCCC3)CC2)c1)c1coc2ccccc12` [Example 1.028], the EC50 was determined as 4 nM.
As for `O=C(Nc1cccc(CN2CCC(C(=O)NC3CCCCC3)CC2)c1)c1cc(F)c(Cl)nc1Cl` [Example 1.089], the EC50 turned out to be 15 nM.
The result for `O=C(Nc1cccc(CN2CCC(C(=O)NC3CCCCC3)CC2)c1)c1ccc[nH]1` [Example 1.046] reads 5 nM; that for `Cc1cncc(C(=O)Nc2cccc(CN3CCCC(C(=O)NC(C)(C)C)CC3)c2)c1` (racemic) [Example 1.290], 49 nM.
Turning to `Cc1ccncc1C(=O)Nc1cccc(CN2CCC(C(=O)NC3CCCCC3)CC2)c1` [Example 1.063], the EC50 was found to be 237 nM.
The molecule `CC(C)C(=O)Nc1cccc(CN2CCC(C(=O)NC3CCCCC3)CC2)c1` [Example 1.016] returned an EC50 of 121 nM. Compared with the last molecule, the EC50 is about 2-fold lower.
The result for `O=C(Nc1cccc(CN2CCC(C(=O)NC3CCCCC3)CC2)c1)c1ccc(Cl)nc1Cl` [Example 1.091] reads 12 nM.
In turn, `CC(C)(C)NC(=O)C1CCN(Cc2cccc(NC(=O)c3cc(C(F)(F)F)ccn3)c2)CC1` [Example 1.242] displayed an EC50 of 6 nM.
The figure for `O=C(Nc1ccc(Cl)c(CN2CCC(C(=O)NC3CCCC3)CC2)c1)c1ccc(F)cc1` [Example 1.219] is 0.9 nM; for `O=C(NC1CCCCC1)C1CCN(Cc2cccc(NC(=O)C3CC3c3ccccc3)c2)CC1` (racemic) [Example 1.029] it is 5 nM.
Turning to `Cc1cccc(C(=O)Nc2cccc(CN3CCC(C(=O)NC4CCCCC4)CC3)c2)n1` [Example 1.081], the 50% effective concentration (EC50) came to 0.9 nM.
The result for `O=C(Nc1cccc(CN2CCC(C(=O)NC3CCCC3)CC2)c1)c1ccc(F)cn1` [Example 1.207] reads 0.8 nM.
`CC(C)(C)NC(=O)C1CCN(Cc2cccc(NC(=O)c3cncc(C4CC4)c3)c2)CC1` [Example 1.240] yielded an EC50 of 3 nM.
`O=C(Nc1cccc(CN2CCC(C(=O)NC3CCCCC3)CC2)c1)c1cccc2ccncc12` [Example 1.010]: a half-maximal effect (EC50) was put at 68 nM.
The molecule `O=C(Nc1cccc(CN2CCC(C(=O)NC3CC3)CC2)c1)c1ccc(F)cc1` [Example 1.199] had an EC50 of 3 nM.
On to `O=C(Nc1cccc(CN2CCC(C(=O)NC3CCCCC3)CC2)c1)c1ccncn1` [Example 1.006], for which it took 2 nM to reach a half-maximal effect (EC50).
Regarding `CN(C)c1ccc(C(=O)Nc2cccc(CN3CCC(C(=O)NC4CCCCC4)CC3)c2)cc1` [Example 1.096], the response was half-maximal at 40 nM (EC50).
In the case of `Cc1cncc(C(=O)Nc2cccc(CN3CCCC(C(=O)NC(C)C)CC3)c2)c1` (racemic) [Example 1.289], the EC50 worked out at 113 nM.
Regarding `Cc1cnc(C(=O)Nc2cccc(C(C)N3CCC(C(=O)NC4CCCCC4)CC3)c2)cn1` (racemic) [Example 1.185], a half-maximal response (EC50) required 15 nM.
For the molecule `O=C(Nc1ccc(Cl)c(CN2CCC(C(=O)NC3CCCC3)CC2)c1)c1cnc2ccccc2c1` [Example 1.222], it took 3 nM to reach a half-maximal effect (EC50).
Consider `O=C(Nc1cccc(CN2CCC(C(=O)NC3CCCCC3)CC2)c1)c1ccc(C(F)(F)F)nc1` [Example 1.068], for which the midpoint of the response, the EC50, lay at 7 nM.
Turning to `COc1cccc(C(=O)Nc2cccc(CN3CCC(C(=O)NC4CCCCC4)CC3)c2)c1` [Example 1.023], the EC50 is 4 nM.
For `COc1ccc(CN2CCC(C(=O)NC(C)(C)C)CC2)cc1NC(=O)c1cccc(C(F)(F)F)n1` [Example 1.304], the EC50 was found to be 4 nM.
The figure for `COc1ccc(NC(=O)c2cccc(C(F)(F)F)n2)cc1CN1CCC(C(=O)NC(C)(C)C)CC1` [Example 1.296] is 6 nM; for `O=C(Cc1ccc2ccccc2c1)Nc1cccc(CN2CCC(C(=O)NC3CCCCC3)CC2)c1` [Example 1.015] it is 78 nM; for `CN(C)C/C=C/C(=O)Nc1cccc(CN2CCC(C(=O)NC(C)(C)C)CC2)c1` [Example 1.342] it is 216 nM.
As for `Cc1cncc(C(=O)Nc2cc(CN3CCC(C(=O)NC(C)(C)C)CC3)ccc2C)c1` [Example 1.302], the EC50 was 6 nM.
As to `Cc1cncc(C(=O)Nc2cccc(CN3CCC(C(=O)NC(C)(C)C)C3)c2)c1` (racemic) [Example 2.096, rac-N-[3-(3-tert-Butylcarbamoyl-pyrrolidin-1-ylmethyl)-phenyl]-5-methyl-nicotinamide], a half-maximal effect (EC50) was put at 28 nM.
Consider `CC(C)(C)NC(=O)C1CCN(Cc2cccc(NC(=O)C3CCc4ccccc43)c2)CC1` (racemic) [Example 1.267], for which the EC50 worked out at 2 nM.
`O=C(Nc1cccc(CN2CCC(C(=O)NC3CCCCC3)CC2)c1)c1ccccc1F` [Example 1.102] registered an EC50 of 4 nM.
For `CC(C)(C)NC(=O)C1CCN(Cc2cccc(NC(=O)Cc3c(Cl)ccc(C(F)(F)F)c3Cl)c2)CC1` [Example 1.250], the EC50 stood at 3 nM.
The result for `CC(C)(C)NC(=O)C1CCN(Cc2cccc(NC(=O)CC3CCOCC3)c2)CC1` [Example 1.255] reads 137 nM.
As to `CC(C)(C)NC(=O)C1CCN(Cc2cccc(NC(=O)c3ccc(F)cc3)c2)CC1` [Example 1.223], a half-maximal effect (EC50) was put at 0.5 nM. Against the preceding molecule, the EC50 is about 270-fold lower.
The result for `CC(C)CN(C)C(=O)C1CCN(Cc2cccc(NC(=O)c3cncc(C(F)(F)F)c3)c2)CC1` [Example 1.276] reads 6 nM; that for `Cc1cncc(C(=O)Nc2cccc(CN3CC[C@H](C(=O)NC(C)(C)C)C[C@@H]3C)c2)c1` (racemic) [Example 2.103, rac-N-[3-((2S*,4S*)-4-tert-Butylcarbamoyl-2-methyl-piperidin-1-ylmethyl)-phenyl]-5-methyl-nicotinamide], 17 nM; that for `Cc1nc(C)c(CC(=O)Nc2cccc(CN3CCC(C(=O)NC(C)(C)C)CC3)c2)s1` [Example 1.262], 120 nM.
The molecule `COc1ccc(C(=O)Nc2cccc(CN3CCC(C(=O)NC4CCCCC4)CC3)c2)cc1` [Example 1.031] showed an EC50 of 2 nM.
With `COc1cc(CN2CCC(C(=O)NC(C)(C)C)CC2)cc(NC(=O)c2ccc(F)cc2)c1` [Example 1.280], the EC50 was determined as 409 nM.
The figure for `CC(C)(C)NC(=O)C1CCN(Cc2cccc(NC(=O)C3COc4ccccc43)c2)CC1` (racemic) [Example 1.266] is 6 nM.
On to `COc1ccc(C(=O)Nc2cc(CN3CCC(C(=O)NC4CCCCC4)CC3)ccc2Cl)cc1` [Example 1.159], for which it took 14 nM to reach a half-maximal effect (EC50). Compared with the last molecule, the EC50 is about 2.3-fold higher.
`CCN(CC)c1ccc(C(=O)Nc2cccc(CN3CCC(C(=O)NC4CCCCC4)CC3)c2)cn1` [Example 1.071] registered an EC50 of 182 nM. Against the preceding molecule, the EC50 is about 13-fold higher.
The result for `CC(c1cccc(NC(=O)c2cccnc2)c1)N1CCC(C(=O)NC2CCCCC2)CC1` (racemic) [Example 1.171] reads 150 nM.
The figure for `CC(c1cccc(NC(=O)c2cnc3[nH]ccc3c2)c1)N1CCC(C(=O)NC2CCCCC2)CC1` (racemic) [Example 1.190] is 134 nM.
